Source: ChEMBL document CHEMBL1153818, “Integration of ligand and structure-based virtual screening for the identification of the first dual targeting agent for heat shock protein 90 (Hsp90) and tubulin” (J Med Chem, 2009)
Active and inactive are the calls of the source. The rule behind the calls is not given here.

Key:
[1] = biological target: Heat shock protein HSP 90-beta (Homo sapiens, UniProt P08238); assay: Inhibition of Hsp90 by FP ATP-site binding assay
MCF7 [2] = assay: Induction of ERalpha degradation in human MCF7 cells at 200 uM after 24 hrs by Western blot analysis; type: functional, cell-based
Bos taurus = organism: Bos taurus; assay: Inhibition of bovine tubulin polymerization
MCF7 [3] = assay: Induction of ERalpha degradation in human MCF7 cells at 1 uM after 24 hrs by Western blot analysis; type: functional, cell-based

Chain of Heat shock protein HSP 90-beta (P08238 whole entry): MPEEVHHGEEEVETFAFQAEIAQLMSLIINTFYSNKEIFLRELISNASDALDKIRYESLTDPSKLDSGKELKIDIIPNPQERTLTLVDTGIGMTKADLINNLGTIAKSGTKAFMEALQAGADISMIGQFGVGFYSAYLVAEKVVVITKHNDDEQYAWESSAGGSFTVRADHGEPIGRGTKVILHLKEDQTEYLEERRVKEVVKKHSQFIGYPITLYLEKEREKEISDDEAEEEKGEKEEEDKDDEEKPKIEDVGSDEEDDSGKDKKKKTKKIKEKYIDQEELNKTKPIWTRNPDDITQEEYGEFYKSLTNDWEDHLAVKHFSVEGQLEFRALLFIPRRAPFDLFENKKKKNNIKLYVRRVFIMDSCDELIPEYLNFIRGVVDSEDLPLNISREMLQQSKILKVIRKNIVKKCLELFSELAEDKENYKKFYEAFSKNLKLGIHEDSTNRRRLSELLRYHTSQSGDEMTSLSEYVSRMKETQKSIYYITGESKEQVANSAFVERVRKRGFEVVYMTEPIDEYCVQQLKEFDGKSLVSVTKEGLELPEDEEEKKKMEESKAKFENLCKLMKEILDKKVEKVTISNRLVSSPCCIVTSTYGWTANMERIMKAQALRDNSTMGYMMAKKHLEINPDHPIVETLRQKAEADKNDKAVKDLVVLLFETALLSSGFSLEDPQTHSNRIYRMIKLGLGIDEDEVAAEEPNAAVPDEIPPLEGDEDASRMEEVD

Structure (SMILES)	IC50 [1] [µM]	Activity (MCF7 [2])	Activity (Bos taurus)	Activity (MCF7 [3])
COc1cc(C(=O)n2ncc3cc(N)ccc32)cc(OC)c1OC	80.8	Active	Dose-dependent effect	–
C=CCNC1=C2C[C@@H](C)C[C@H](OC)[C@H](O)[C@@H](C)/C=C(\C)[C@H](OC(N)=O)[C@@H](OC)/C=C\C=C(/C)C(=O)NC(=CC1=O)C2=O	–	–	–	Active
